In patent publication US10799603B2, “Kinase and/or phosphatase sensing via hydroxyquinoline-sensitized chelates” (Massachusetts Institute of Technology, priority 2018, dated 2020):
Square brackets hold non-standard residues; d marks the D form. Ends that are not written are not given here. * marks the point of attachment. Sox = hydroxyquinoline on cysteine, CN(C)S(=O)(=O)c1ccc(O)c2nc(C*)ccc12; pT = C[C@@H](OP(=O)(O)O)[C@H](N)C(=O)O

Test: Eu(III) titration, time-resolved luminescence, determination of Eu(III) dissociation constants
Type: binding
Conditions: 5 micromolar peptide, 30° C., 50 mM HEPES pH 7.5, 100 mM NaCl; averages of three separate experiments
Protocol: The luminescence experiments were conducted as follows. Time-resolved emission measurements were made with a CLARIOstar® spectrofluorimeter. The spectra were recorded between 410 and 700 nm, and all measurements were made using the following settings: excitation wavelength 360 nm; delay time 0.4 ms; stepwidth 1.0 nm; emission bandwidth 8 nm; gain: 3000; focal height […]; 20 flashes per well. All of the spectra were corrected for background luminescence by subtracting a blank scan of the solvent solution.
Determination of Eu(III) dissociation constants (KD). Eu(III) titrations were performed at 30° C. in a buffer containing 50 mM HEPES buffer, pH 7.5, 100 mM NaCl, and 5 micromolar of the of the phosphopeptide Sox-P (5 micromolar) or the corresponding unphosphorylated biosensor Sox-OH (5 micromolar) in a total volume of 200 microliters. Aliquots of EuCl3 stock solutions were added (for the final EuCl3 concentration in the well to be in the range of approximately 2.5-6000 micromolar) and the data was recorded in the fluorometer. Data were fit with the program GraFit 7. The reported values are averages of three separate experiments.

Row | Kd | Substance
1 | 18.4 µM | LVEPLT*PC(Sox)GEA (LVEPL[pT]PC(Sox)GEA) [Sox-P, phosphopeptide with Sox hydroxyquinoline attached to the S of the cysteine]
2 | 1570 µM | LVEPLTPC(Sox)GEA [Sox-OH, unphosphorylated biosensor peptide with Sox hydroxyquinoline attached to the S of the cysteine]
